{"source": "patent US20110263677A1", "about": "“GOS2 MODULATORS IN THE TREATMENT OF ACNE, OF SEBORRHOEIC DERMATITIS OR OF HYPERSEBORRHOEA” (Galderma Research & Development, priority 2008, published 2011)", "key": {"[1]": {"system": "GOS2", "experiment": "Real-time PCR gene expression in rat epidermal split containing sebaceous glands after topical treatment: GOS2", "type": "in vivo", "settings": "topical administration, 0.3% in acetone, 96 hours", "method": "(§1) Strain: OFA-SD (SPF Caw),\n(§2) Number per batch: 40 (8 animals per group) Treatment: Route of administration: topical\n(§3) Compound/batch: PPARgamma agonist (rosiglitazone)\n(§4) Method of evaluation: The animals are weighed at the beginning and at the end of the study. Skin biopsies are taken (6 samples of skin excised per rat) in order to analyse the expression of the genes (RNA extraction, reverse transcriptase and real-time PCR). The samples are stored overnight at 4° C. before incubation in 1M sodium bromide (NaBr) for 2 hours at 37° C. After incubation, the samples are separated into epidermis or dermis. The epidermal samples are stored at […]. Under these conditions, the sebaceous glands are in the epidermal split. PCRs are carried out, beginning with the cDNAs originating from the epidermal splits containing sebaceous glands from control rats or rats treated with the PPARγ agonist: the mRNA is extracted using a column and quantified. The quality of mRNAs is measured and is represented by the 18S/28S ratio. The results are standardized with respect to 18S, expressed as relative induction versus untreated animals (carrier group). The statistical analysis is obtained using internal software based on a modified Monte Carlo statistical analysis."}, "[2]": {"system": "PPARG (reference gene)", "experiment": "Real-time PCR gene expression in rat epidermal split containing sebaceous glands after topical treatment: PPARG", "type": "in vivo", "settings": "topical administration, 0.3% in acetone, 96 hours", "method": "as §1, §2, §3, §4"}, "[3]": {"system": "PPARG", "experiment": "Real-time PCR gene expression in rat epidermal split containing sebaceous glands after topical treatment: PPARG", "type": "in vivo", "settings": "topical administration, 0.3% in acetone, 96 hours, versus carrier group", "method": "as §1, §2, §3, §4"}, "[4]": {"system": "HPRT1 (standardizer 1)", "experiment": "Real-time PCR gene expression in rat epidermal split containing sebaceous glands after topical treatment: HPRT1", "type": "in vivo", "settings": "topical administration, 0.3% in acetone, 96 hours", "method": "as §1, §2, §3, §4"}, "[5]": {"system": "ACTB (standardizer 2)", "experiment": "Real-time PCR gene expression in rat epidermal split containing sebaceous glands after topical treatment: ACTB", "type": "in vivo", "settings": "topical administration, 0.3% in acetone, 96 hours", "method": "as §1, §2, §3, §4"}, "[6]": {"system": "GOS2", "settings": "mouse liver; Zandbergen et al., 2005; cited from earlier work"}}}
{"smiles": "COCCOCOc1ccc2cc(C(=O)N(C)Cc3cccc(-c4ccc(CC5SC(=O)NC5=O)cc4)c3)ccc2c1", "note": "(stereo not drawn) [PPARgamma agonist, 6-(2-methoxyethoxy-methoxy)naphthalene-2-carboxylic acid [4′-(2,4-dioxothiazolidin-5-ylmethyl)biphenyl-3-ylmethyl]methylamide]", "values": [{"measurement": "Variation versus carrier after standardization (ΔΔCt)", "setting": "[1]", "value": 2.36}, {"measurement": "Relative induction", "setting": "[1]; versus carrier group", "value": 5.24}, {"measurement": "Variation versus carrier after standardization (ΔΔCt)", "setting": "[2]", "value": 0.72}, {"measurement": "Relative induction", "setting": "[3]", "value": 1.65}, {"measurement": "Variation versus carrier after standardization (ΔΔCt)", "setting": "[4]", "value": "−0.07"}, {"measurement": "Relative induction", "setting": "[4]; versus carrier group", "value": "−1.05"}, {"measurement": "Variation versus carrier after standardization (ΔΔCt)", "setting": "[5]", "value": 0.23}, {"measurement": "Relative induction", "setting": "[5]; versus carrier group", "value": 1.18}]}
{"smiles": "Cc1cccc(Nc2cc(Cl)nc(SCC(=O)O)n2)c1C", "note": "[Wy14643]", "values": [{"measurement": "expression of GOS2 (marker for PPARalpha)", "setting": "[6]", "value": "induced"}]}
